The nature of test [1]: Concentration required for Photoinactivation of enveloped viruses. Type of test: functional.
The subject of test [2] is Human immunodeficiency virus 1. The experiment in a line: Concentration required for Photoinactivation of cell-associated HIV-1. In kind it is functional.
Test [3] relates to Human immunodeficiency virus 1. The experiment in a line: Concentration required for Photoinactivation of cell-free HIV-1. Type of test: functional, organism-based.
Test [4] deals with Human alphaherpesvirus 1. The experiment in a line: Photoinactivation against simplex virus type 1. Type of test: functional.

In test [1], `CCCCCCNc1c(Br)cc2c3c(cccc13)C(=O)N(CCCCCC)C2=O` gave an Activity of 0.1 µM. As for `CCCCNc1c(Br)cc2c3c(cccc13)C(=O)N(CCCC)C2=O`, the Activity in test [1] worked out at 0.1 µM. `CCCCCCCCNc1c(Br)cc2c3c(cccc13)C(=O)N(CCCCCCCC)C2=O` returned an Activity in test [1] of 0.1 µM. In the case of `CCCCCCN1C(=O)c2cccc3c(NCCNC(=O)CCCCC(=O)NCCNc4c(Br)cc5c6c(cccc46)C(=O)N(CCCCCC)C5=O)c(Br)cc(c23)C1=O`, the Activity was 300 nM in test [2], 1 µM in test [3], 0.1 µM in test [1] and less than 500 nM in test [4].

The values above are taken from ChEMBL document CHEMBL1126820, “4-alkylamino-3-bromo-N-alkyl-1,8-naphthalimides: new photochemically activatable antiviral compounds” (1993).
